Data reported in patent US8551721B2, “Bioluminescent detection of cyanohydroxy benzothiazole compounds” (Promega Corporation, priority 2008, dated 2013).

Experiments:
Format in all cases: biochemical
[1] = system: endogenously expressed UGT isozymes in mammalian microsomes; test: Utilization of compounds by mammalian microsomes; conditions: 15 minutes at 37° C., 0.1 mg/mL mammalian microsomes or 0.2 mg/mL Supersomes, 50 μM compound
Experimental: The invention includes a method of determining activity of the uridine 5′-diphospho-glucuronosyltransferase (UDP-glucuronosyltransferase, or UGT) family enzymes in vitro. […] Following the UGT enzyme reaction, an equal volume of P450-Glo Luciferin Detection Reagent (Promega) containing 15-30 mM D-cysteine-HCl.H2O (Sigma) was added and the plate was mixed and incubated at room temperature, typically for 20-30 minutes. P450-Glo Luciferin Detection Reagent can be prepared by dissolving a vial of Promega Luciferin Detection Reagent (Promega Part #V859B) with a vial of Promega P450-Glo Buffer (Promega Part #V865B).
During this incubation, the cysteine reacts with the cyanobenzathiozole substrate to yield a D-luciferin derivative. […] Therefore, activity of the UGT enzyme can be measured by analyzing the difference (lower or no output) in relative light units (RLU) of a sample in which glucuronidation occurs compared to a sample that was run under the same conditions with no added UDPGA cofactor.
Tissue microsomes were obtained from Xenotech LLC or BD Gentest.

UGT 2B7 = target: T1, UGT 2B7 (Homo sapiens, UniProt P16662); test: Assay variability (Z') with UGT 2B7 Supersomes and compound 3138; conditions: 0.2 mg/mL Supersomes, 30 μM compound 3138, plus or minus 5 mM UDPGA, 12 samples each, 120 mM at 37° C.
T1 construct: purchased BD Gentest; host or cells: insect cells (microsomes)
T1 sequence (P16662 24-529): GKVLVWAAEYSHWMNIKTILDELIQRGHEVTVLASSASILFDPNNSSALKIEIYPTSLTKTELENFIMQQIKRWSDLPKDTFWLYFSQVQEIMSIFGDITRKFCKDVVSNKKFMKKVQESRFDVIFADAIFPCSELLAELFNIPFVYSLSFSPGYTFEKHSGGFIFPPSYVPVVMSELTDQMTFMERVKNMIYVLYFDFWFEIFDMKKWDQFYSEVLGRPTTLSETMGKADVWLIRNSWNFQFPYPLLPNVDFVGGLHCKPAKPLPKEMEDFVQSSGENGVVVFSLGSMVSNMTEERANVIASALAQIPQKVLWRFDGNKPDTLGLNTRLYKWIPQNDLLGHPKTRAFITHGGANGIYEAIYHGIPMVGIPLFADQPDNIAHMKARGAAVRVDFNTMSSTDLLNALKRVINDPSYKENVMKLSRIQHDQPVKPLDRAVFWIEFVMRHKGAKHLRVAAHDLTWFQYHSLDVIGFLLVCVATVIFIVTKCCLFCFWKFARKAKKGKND
Experimental: (§1) Assay variability was determined using the activity data and standard deviations of 12 separate minus UDPGA and plus UDPGA samples. All reactions contained 50 mM TES, pH 7.5, 8 mM MgCl2, 25 μg/mL alamethicin, 0.2 mg/mL UGT 1A1 or 2B7 Supersomes™, and 30 μM compound 3138, plus or minus 5 mM UDPGA. After […] at 37° C., 40 μl, of LDR plus 20 mM D-cysteine was added to each 40 μl, reaction and mixed. After 20 minutes at room temperature, RLU were read on a luminometer.
(§2) Z′ values were calculated using the equation outlined below.
(§3) Robust assay systems typically display Z′ values of 0.5 or higher. The calculated Z′ value for UGT 1A1 was 0.83. The calculated Z′ value for UGT 2B7 under the same conditions was 0.67.

UGT 1A1 = target: T2, UGT 1A1 (Homo sapiens, UniProt P22309); test: Assay variability (Z') with UGT 1A1 Supersomes and compound 3138; conditions: 0.2 mg/mL Supersomes, 30 μM compound 3138, plus or minus 5 mM UDPGA, 12 samples each, 120 mM at 37° C.
T2 construct: purchased BD Gentest; host or cells: insect cells (microsomes)
T2 sequence (P22309 26-533): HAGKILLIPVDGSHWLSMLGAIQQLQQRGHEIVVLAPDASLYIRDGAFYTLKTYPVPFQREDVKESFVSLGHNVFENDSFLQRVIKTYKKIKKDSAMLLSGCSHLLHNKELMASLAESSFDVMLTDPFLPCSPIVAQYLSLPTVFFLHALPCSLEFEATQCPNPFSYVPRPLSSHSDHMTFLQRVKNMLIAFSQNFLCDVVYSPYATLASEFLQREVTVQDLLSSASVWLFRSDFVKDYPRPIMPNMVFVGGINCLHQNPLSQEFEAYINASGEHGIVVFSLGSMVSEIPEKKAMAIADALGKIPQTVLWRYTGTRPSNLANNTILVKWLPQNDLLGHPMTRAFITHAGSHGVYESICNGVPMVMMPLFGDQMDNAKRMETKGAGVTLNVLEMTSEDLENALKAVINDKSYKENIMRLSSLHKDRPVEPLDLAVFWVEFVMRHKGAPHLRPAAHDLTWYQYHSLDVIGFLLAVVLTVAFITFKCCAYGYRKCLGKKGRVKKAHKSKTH
Experimental: as §1, §2, §3

Cc1cc(O)cc2sc(C#N)nc12 [compound 3138]
utilization of compound 3138 by tissue microsomes compared with control 1A1 Supersomes [1]: All tissues tested utilized much more compound 3138 than the control 1A1 Supersomes | calculated Z′ value for UGT 2B7 (UGT 2B7): 0.67 | calculated Z′ value for UGT 1A1 (UGT 1A1): 0.83
